US20180141965A1, “AUTOTAXIN INHIBITORS AND USES THEREOF” (NATIONAL AND KAPODISTRIAN UNIVERSITY OF ATHENS, priority 2015, published 2018)
Where two headings read alike, the source gives them in different places. Blank lines part the entries; values can stand above or below the molecule they belong to.

Biological target: T1, recombinant ATX (mouse ATX-β) (Mus musculus, UniProt Q9R1E6)
T1 construct: purchased Sino Biological
Experiment: Inhibition of ATX, Amplex Red PLD assay kit
Format: biochemical
Conditions: 2 nM recombinant ATX, mean of two independent experiments
Experimental: The in vitro activity of the synthetic inhibitors was studied using the Amplex™ Red PLD assay kit (Molecular Probes, Interchim, Montlucon, France). Inhibitors were dissolved in DMSO (stock solution 3 mM) and appropriate dilutions were made in DMSO. […] The IC50 values were determined using the mean values obtained from two independent experiments. The IC50 values were determined graphically using the sigmoid dose-response fitting method (PrismH software) by the equation f=y0+a/(1+exp(−(x−x0)/b)) given by SigmaPlot 11.0.

[1] = hydroxamates, substrate 50 μM LPC 16:0, read-out: IC50 (μM) 16:0 LPC
[2] = thioamides/phosphonates/phosphinates, substrate 50 μM LPC 16:0, read-out: IC50 (μM) 16:0 LPC
[3] = thioamides/phosphonates/phosphinates, substrate 50 μM LPC 18:0, read-out: IC50 (μM) 18:0 LPC
[4] = hydroxamates, substrate 50 μM LPC 18:0, read-out: IC50 (μM) 18:0 LPC
[5] = thioamides/phosphonates/phosphinates, substrate 50 μM LPC 18:1, read-out: IC50 (μM) 18:1 LPC

SMILES: O=C(Cc1ccc(NC(=O)CCCCC(=O)Nc2ccccc2)cc1)NO [GK285]
IC50 [1]: 1.2 µM

IC50 [2]: 3 µM
IC50 [3]: 0.7 µM
SMILES: CCCCCCCCCCCCCC(=S)NCCCC[PH](=O)O [GK312]

IC50 [2]: 0.5 µM
IC50 [3]: 1 µM
SMILES: CCCCCCCCCCCCCC(=S)NCCCC[PH](=O)O [GK325]

IC50 [2]: 0.4 µM
IC50 [3]: 4 µM
SMILES: CCCCCCCCCCCCCC(=O)Nc1ccc(CC[PH](=O)O)cc1 [GK327]

SMILES: CCCCCCCCCCCCCC(=O)Nc1ccc(CC(=O)NO)cc1 [GK332]
IC50 [1]: 1 µM
IC50 [4]: 0.2 µM

SMILES: O=C(Cc1ccc(NC(=O)CCCCCCc2ccccc2)cc1)NO [GK333]
IC50 [1]: 0.7 µM
IC50 [4]: 2 µM

IC50 [1]: 0.6 µM
SMILES: Nc1ccccc1NC(=O)Cc1ccc(NC(=O)CCCCC(=O)Nc2ccccc2)cc1 [GK335]

IC50 [1]: 0.4 µM
IC50 [4]: 5 µM
SMILES: COC(=O)[C@@H](CCC(=O)NO)NC(=O)CCCCC(=O)Nc1ccccc1 [GK337]

SMILES: O=C(Cc1ccc(NC(=O)CCCCNC(=O)c2ccccc2)cc1)NO [GK340]
IC50 [1]: 1 µM
IC50 [4]: 0.2 µM

SMILES: CCCCOc1ccc(CCCCC(=O)Nc2ccc(CC(=O)NO)cc2)cc1 [GK341]
IC50 [1]: 4 µM

SMILES: CCCCCCCCc1ccc(OCC(=O)Nc2ccc(CC(=O)NO)cc2)cc1 [GK344]
IC50 [1]: 1 µM
IC50 [4]: 0.3 µM

SMILES: CCCCCCCCc1ccc(CCC(=O)Nc2ccc(CC(=O)NO)cc2)cc1 [GK345]
IC50 [1]: 5 µM

SMILES: O=C(Cc1ccc(NC(=O)CCCCCCC(=O)Nc2ccccc2)cc1)NO [GK346]
IC50 [1]: 2 µM

IC50 [2]: 0.198 µM
IC50 [5]: 0.098 µM
SMILES: CCCCCCCCCCCCCC(=S)NCCCCC(=S)NCC [GK377]

SMILES: CCCCCCCCCCCCCC(=S)NCCCCP(=O)(O)OCC [GK378]
IC50 [2]: 0.12 µM
IC50 [5]: 0.05 µM

SMILES: COc1ccc(C(=O)NCCCCC(=O)Nc2ccc(CC(=O)NO)cc2)cc1 [GK381]
IC50 [1]: 1 µM

IC50 [1]: 4 µM
SMILES: COC(=O)[C@@H](CCC(=O)NO)NC(=O)CCCCC(=O)Nc1ccc(OC)cc1 [GK382]

IC50 [1]: 0.05 µM
SMILES: COC(=O)[C@@H](CCCC(=O)NO)NC(=O)CCCCC(=O)Nc1ccccc1 [GK400]

SMILES: CCCC[C@@H](CCCC(=O)NO)NC(=O)CCCCC(=O)Nc1ccccc1 [GK442]
IC50 [1]: 0.06 µM

IC50 [2]: 0.06 µM
SMILES: CCCCCCCCCCCCNC(=S)NCCCCC(=S)NCC [GK446]

IC50 [1]: 0.8 µM
SMILES: CCCC[C@@H](CCCC(=O)NO)NC(=S)NCCCC(=O)Nc1ccccc1 [GK471]
